A value given as a limit tells only on which side of the number the result lay.

This series in a line: Screening experiments of nanosuspensions with different stabilizers (wet bead milling, planetary mill). Format: physicochemical. To be noted: wet bead milling process according to Examples 1-3. On the procedure: Most of the screening experiments of Example 1 were done in a planetary ball mill (PBM) of type Pulverisette 5. For sample preparation, the micronized compound of the formula (I) was predispersed in aqueous polymer surfactant solution and transferred into the grinding chamber (PET 23ml) which was filled with milling beads. The water contained in the solution was used as dispersing agent. As grinding media (0.4 - 0.6 mm) the Silibeads® zirconium oxide (yttrium stabilized) with a bulk density of 3.9 kg/l from Sigmund Lindner (Germany) were used. The milling beads fill level was 60% of the grinding chamber volume. Care was taken not to leave any air inclusions in the grinding chamber, as this would have a negative effect on the grinding process. The grinding time was 90 minutes at 400 rotations per minute. Four grinding chambers could be fed into the PBM per grinding operation. Thus, after separation of the grinding media, about 40 - 45 g suspension per grinding process could be produced.
The compound of formula (I) in crystalline form of modification I was produced according to example 13, method E of WO 2013/076168. Before nanomilling, the compound of formula (I) in crystalline form of modification I was micronized. For the screening experiments many different formulations were tested. For these experiments the duration of milling was 60 min. […]

On to `COC(=O)Nc1c(N)nc(-c2nn(Cc3ccccc3F)c3ncc(F)cc23)nc1N` [Vericiguat, methyl {4,6-diamino-2-[5-fluoro-1-(2-fluorobenzyl)-1H-pyrazolo[3,4-b]pyridin-3-yl]pyrimidin-5-yl}carbamate], for which the d50 after milling is on record as below 200 nm.

The values above are taken from US20230067593A1, “NANOFORMULATIONS OF METHYL {4,6-DIAMINO-2-[5-FLUORO-1-(2-FLUOROBENZYL)-1H-PYRAZOLO[3,4-B]PYRIDIN-3 -YL]PYRIMIDIN-5-YL} CARBAMATE” (ADVERIO PHARMA GMBH, priority 2020, published 2023).
